Reference: patent US20070258972A1, “Combination of a Histone Deacetylase Inhibitor with a Death Receptor Ligand” (priority 2003, published 2007)

Tests used:
Type in all cases: cell-based, human
[1] = system: Apo-2L/TRAIL-induced DISC; test: Apo-2L/TRAIL-induced DISC analysis; settings: LAQ824 100 nM for 24 hours followed by Apo-2L/TRAIL (100 ng/mL for two hours) versus Apo-2L/TRAIL; not c-FLIPL
Method: Untreated or LAQ824 treated SKW 6.4 or Jurkat cells are suspended at a final concentration of 10^6 cells/mL in a pre-warmed, complete RPMI media. Cells are treated with 100 ng/mL Apo-2L/TRAIL for 2 hours at 37° C, followed by washing with 1 mL of ice-cold PBS. Cells are lysed in 500 μL lysis buffer (25 mM Tris-HCl, pH 7.2, 150 mM NaCl, 25 mM NaF, 1 mM benzamidine, 1.0% Triton X-100, 2 μg/mL aprotinin 2 μg/mL leupeptin, 1 μg/mL pepstin-A and 0.1 μg/mL PMSF) for 30 minutes on ice. In the untreated controls, 100 ng/mL Apo-2L/TRAIL was added after lysis of cells, to immunoprecipitate non-stimulated Apo-2L/TRAIL receptors. One-hundred micrograms (100 μg) of the lysates was incubated at 4° C. for 2 hours with 1 μg each of anti-Apo-2L/TRAIL receptor 1 & 2 (DR4 and DR5) antibodies, provided by Immunex Corp., Seattle Wash. The immune-complexes are incubated overnight at 4° C. with 20 μL of protein A-agarose beads (Roche, Indianapolis, Ind.). The beads are recovered by centrifugation and washed twice with the lysis buffer. The pellet was re-suspended in the sample buffer and analyzed by SDS-PAGE and immunoblot analysis using antibodies against caspase-8, DR5, DR4 and FADD.

p21WAF1 promoter DNA = test: ChIP assay, p21WAF1 promoter; settings: Jurkat and SKW 6.4 cells
Method: ChIP analysis was performed by a slight modification of a previously described method. Cells are incubated overnight at a density of 0.25×10^8 cells/ ml at 37° C. with 5% CO2. Next day, cells are cultured with 0, 50, 100 or 250 nM of LAQ 824 for 24 hours. Formaldehyde was then added to the cells to a final concentration of 1%, and the cells are gently shaken at room temperature for 10 minutes. Following this, the cells are pelleted, suspended in 1 mL of ice-cold PBS containing protease inhibitors (Complete, Boehringer Mannheim). Cells are again pelleted, re-suspended in 0.5 mL of SDS lysis buffer (1% SDS/1.0 mM EDTA/50 mM Tris.HCl, pH 8.1) and incubated on ice for 20 minutes. Lysates are sonicated with 15-second bursts. Debris was removed from samples by centrifugation for 20 minutes at 15,000×g at 4° C. An aliquot of the chromatin preparation (100 μL) was set aside and designated as Input Fraction. […] Immunoprecipitated DNA (both immunoprecipitation samples and Input) was recovered by phenol/chloroform extraction and ethanol precipitation and analyzed by PCR. […] The optimal reaction conditions for PCR are determined for each primer pair. […] The ratio between the immunoprecipitated DNA and Input DNA was calculated for each treatment and primer set. The fold increases after treatment with LAQ824 was calculated from the indicated ratio.

DR5 = DR5 cell-membrane expression by flow cytometry, Jurkat cells

recruitment of FADD and caspase-8 into the immunoprecipitates of DR4 & DR5 [1]: more recruitment
SMILES: O=C(/C=C/c1ccc(CN(CCO)CCc2c[nH]c3ccccc23)cc1)NO [LAQ824, N-hydroxy-3-[4-[[(2-hydroxyethyl)[2-(1H-indol-3-yl)ethyl]-amino]methyl]phenyl]-2E-2-propenamide]
association of p21WAF1 promoter DNA with acetylated histones (p21WAF1 promoter DNA): increased
cell-membrane expression of DR5 (DR5): induces
